Results as given in US9895324B2, “Halogenated diarylacetylenes and methods of treating cancer” (UNIVERSITY OF KENTUCKY RESEARCH FOUNDATION, priority 2014, dated 2018).
Entries after “also recorded” stand apart in the source; their conditions may differ. Like-named read-outs stand apart in the source and are kept apart here.

Legend:
[1] = test system: LS174T cells; assay: Cell proliferation assay, LS174T colon cancer cells; type: cell-based
Procedure: Cell Proliferation Assay.
LS174T cells were grown in RPMI medium (Mediatech) supplemented with 5% fetal bovine serum and 1% penicillin/streptomycin. For cell proliferation assays, 3×10^4 cells/well growing in 12-well plates were treated with DMSO or inhibitors. The cell numbers and viability were analyzed by Vi-Cell Cell Viability Analyzer after 4 days. The IC50 values were calculated with GraphPad Prim 5.

[2] = target: catalytic subunit of methionine S-adenosyltransferase-2 (MAT-2) (Homo sapiens, UniProt P31153); conditions: cited from earlier work
[3] = target: MAT2 (Homo sapiens, UniProt P31153); assay: MAT2A inhibition assay; type: biochemical; conditions: compared with stilbene 1
Excerpt: We reported previously that stilbenes repressed colon cancer cell proliferation by inhibiting c-myc expression and inducing the cell cycle inhibitor, p21(Wif1/Cip1). See Zhang et al. J Med Chem 2011: 54:1288-1297. The similarity of the diarylacetylenes to the stilbenes also prompted an in silico modeling study of the binding of (E)-4-(2′,6′-difluorostyryl)-N,N-dimethylaniline (1) and 4((2,6-difluorophenyl)ethynyl)-N,N-dimethylaniline (2m). It was believed that para-oriented amino-substituents, such as the N-methylamino and N,N-dimethylamino groups, were associated with potent MAT2A inhibition. […] Variability in the MAT2A inhibition assay made the measurement of c-myc inhibition a preferred analytical tool for assessing the potency of diarylacetylenes.

[4] = Homo sapiens, LS174T, 96 h, 4 days, read-out: Inhibition of LS174T Cell Proliferation IC50
[5] = 4 days, read-out: Inhibition of LS174T Cell Proliferation IC50

Chain of catalytic subunit of methionine S-adenosyltransferase-2 (MAT-2) (P31153 whole entry): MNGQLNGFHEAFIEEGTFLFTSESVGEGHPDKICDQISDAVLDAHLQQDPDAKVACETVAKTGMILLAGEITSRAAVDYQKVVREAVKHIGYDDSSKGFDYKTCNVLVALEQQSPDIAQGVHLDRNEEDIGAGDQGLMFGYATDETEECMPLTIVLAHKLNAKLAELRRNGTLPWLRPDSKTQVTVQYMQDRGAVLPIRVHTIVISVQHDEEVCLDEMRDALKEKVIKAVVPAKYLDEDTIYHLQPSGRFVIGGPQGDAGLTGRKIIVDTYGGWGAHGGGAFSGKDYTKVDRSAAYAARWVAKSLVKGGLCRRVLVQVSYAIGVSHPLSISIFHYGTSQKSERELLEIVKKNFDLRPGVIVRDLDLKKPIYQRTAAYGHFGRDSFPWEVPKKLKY
Chain of MAT2 (P31153 whole entry): as above

| Compound | melting point | IC50 [1, 4] | Potency as inhibitor of LS174T cell proliferation (in words) [1] | further results |
| --- | --- | --- | --- | --- |
| Nc1ccc(C#Cc2c(F)cccc2F)cc1 [Compound 2a, 4-((2,6-Difluorophenyl)ethynyl)aniline] | 104 to 105 °C | 0.055 ± 0.0078 µM |  | IC50 ([1]; Homo sapiens, LS174T, read-out: IC50 (inhibition of LS174T cell proliferation)): 0.055 ± 0.0078 µM |
| CN(C)c1ccc(C#Cc2cc(F)ccc2F)cc1 [Compound 2l, 4-((2,5-Difluorophenyl)ethynyl)-N,N-dimethylaniline] | 106 to 107 °C | 0.055 ± 0.006 µM |  |  |
| CN(C)c1ccc(C#Cc2c(Cl)cccc2Cl)cc1 [Compound 2o, 4-((2,6-Dichlorophenyl)ethynyl)-N,N-dimethylaniline] | 96 to 98 °C | 0.052 ± 0.0071 µM |  |  |
| CNc1ccc(C#Cc2c(F)cccc2F)cc1 [Compound 2b, 4-((2,6-Difluorophenyl)ethynyl)-N-methylaniline] | 69 to 70 °C |  |  |  |
| CN(C)c1ccc(/C=C/c2c(F)cccc2F)cc1 [Compound 1, (E)-4-(2′,6′-difluorostyryl)-N,N-dimethylaniline, reference compound] |  | 0.059 ± 0.0075 µM |  | Molecular target [2]: targeted exclusively the catalytic subunit of methionine S-adenosyltransferase-2 (MAT-2) |
| CN(C)c1ccc(C#Cc2ccc(F)cc2)cc1 [Compound 2g, 4-((4-Fluorophenyl)ethynyl)-N,N-dimethylaniline] | 132 to 134 °C | > 3 µM | very low potency; also recorded: significantly less active |  |
| CN(C)c1ccc(C#Cc2ccccc2)cc1 [Compound 2c, N,N-Dimethyl-4-(phenylethynyl)aniline] | 104 to 106 °C | > 3 µM | very low potency |  |
| CN(C)c1ccc(C#Cc2ccccc2Cl)cc1 [Compound 2e, 4-((2-Chlorophenyl)ethynyl)-N,N-dimethylaniline] | 108 to 110 °C | < 0.05 µM |  | IC50 [1, 5]: 0.031 ± 0.0031 µM |
| CN(C)c1ccc(C#Cc2cc(F)cc(F)c2)cc1 [Compound 2k, 4-((3,5-Difluorophenyl)ethynyl)-N,N-dimethylaniline] | 72 to 74 °C | > 3 µM | significantly less active |  |
| CN(C)c1ccc(C#Cc2cccc(F)c2)cc1 [Compound 2f, 4-((3-Fluorophenyl)ethynyl)-N,N-dimethylaniline] | 99 to 100 °C | > 3 µM | significantly less active |  |
| CN(C)c1ccc(C#Cc2ccc(F)c(F)c2)cc1 [Compound 2j, 4-((3,4-Difluorophenyl)ethynyl)-N,N-dimethylaniline] | 100 to 101 °C | > 3 µM | significantly less active |  |
| CN(C)c1ccc(C#Cc2c(F)cccc2Cl)cc1 [Compound 2n, 4-((2-Chloro-6-fluorophenyl)ethynyl)-N,N-dimethylaniline] | 86 to 88 °C |  |  |  |
| CN(C)c1ccc(C#Cc2ccc(F)cc2F)cc1 [Compound 2i, 4-((2,4-Difluorophenyl)ethynyl)-N,N-dimethylaniline] | 116 to 118 °C | 0.056 ± 0.0081 µM |  |  |
| CN(C)c1ccc(C#Cc2cccc(F)c2F)cc1 [Compound 2h, 4-((2,3-Difluorophenyl)ethynyl)-N,N-dimethylaniline] | 104 to 106 °C | 0.119 ± 0.0046 µM |  |  |
| CN(C)c1ccc(C#Cc2c(F)cccc2F)cc1 [Compound 2m, 4-((2,6-Difluorophenyl)ethynyl)-N,N-dimethylaniline] |  |  |  | MAT2 inhibition (in words, data not shown) [3]: inhibited MAT2 at concentrations comparable to that of the stilbene 1 |
| CN(C)c1ccc(C#Cc2ccccc2F)cc1 [Compound 2d, 4-((2-Fluorophenyl)ethynyl)-N,N-dimethylaniline] | 94 to 96 °C | < 0.05 µM |  | IC50 [1, 5]: 0.039 ± 0.006 µM |
